Experimental data as given in US11186590B2, “Somatostatin modulators and uses thereof” (CRINETICS PHARMACEUTICALS, INC., priority 2018, dated 2021).

molecular target: hSSTR4 (Homo sapiens (Human), UniProt P31391); assay: selectivity for inhibition of cAMP via hSSTR2 vs. hSSTR4; assay type: cell-based; conditions: Table B
Description: General overview: All five SSTR subtypes are Gi coupled G-protein coupled receptors (GPCRs) that lead to decreases in intracellular cyclic AMP (cAMP) when activated by an agonist. Therefore, measurement of intracellular cAMP levels can be used to assess whether compounds of the invention are agonists of SSTR subtypes (John Kelly, Troy Stevens, W. Joseph Thompson, and Roland Seifert, Current Protocols in Pharmacology, 2005, 2.2.1-2.2). One example of an intracellular cAMP assay is described below.
Four days prior to the assay, 5,000 Chinese hamster ovary cells (CHO-K1, ATCC #CCL-61) stably expressing the human somatostatin receptor subtype 2 are plated in each well of a 96-well tissue culture-treated plate in Ham's F12 growth media (ThermoFisher #10-080-CM) supplemented with 10% donor bovine serum (Gemini Bio-Products #100-506), 100 U/mL penicillin; 100 ug/mL streptomycin; 2 mM L-glutamine (Gemini Bio-Products #400-110) and 0.2 mg/mL hygromycin B (GoldBio #31282-04-9). The cells are cultured at 37° C., 5% CO2 and 95% humidity. On the day of the assay, the media is aspirated and the cells are treated with 50 μL of 1.6 μM NKH477 (Sigma #N3290) plus various dilutions of compounds of the invention in assay buffer [1× Hank's Balanced Salt Solution (ThermoFisher #SH3058802), 0.5 mM HEPES pH 7.4, 0.1% bovine serum albumin, 0.2 mM 3-Isobutyl-1-methylxanthine (IBMX, VWR #200002-790)]. The cells are incubated for 20 minutes at 37° C. (the final concentration of the compounds of the invention are typically 0-10,000 nM). The cells are treated with 50 μL of lysis buffer (HRTF cAMP kit, Cisbio). The lysate is transferred to 384-well plates and cAMP detection and visualization antibodies are added and incubated for 1-24 hours at room temperature. The time-resolved fluorescent signal is read with a Tecan M1000Pro multiplate reader. The intracellular cAMP concentrations are calculated by regression to a standard curve and are plotted vs. the concentration of the compounds of the invention and the EC50 of the compounds are calculated using standard methods. All data manipulations are in GraphPad Prism v6.

hSSTR4, sequence (P31391 whole entry): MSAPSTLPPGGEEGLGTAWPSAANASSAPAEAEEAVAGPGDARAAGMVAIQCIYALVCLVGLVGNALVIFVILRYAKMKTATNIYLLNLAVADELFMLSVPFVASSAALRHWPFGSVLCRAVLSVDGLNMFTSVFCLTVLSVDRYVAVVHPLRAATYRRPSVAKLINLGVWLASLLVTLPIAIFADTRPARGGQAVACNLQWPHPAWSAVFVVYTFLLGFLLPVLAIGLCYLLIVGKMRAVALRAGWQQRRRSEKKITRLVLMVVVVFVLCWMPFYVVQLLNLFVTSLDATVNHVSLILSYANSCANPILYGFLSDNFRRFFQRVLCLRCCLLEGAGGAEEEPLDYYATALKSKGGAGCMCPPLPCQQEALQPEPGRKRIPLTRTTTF

Row | hSST4/hSST2 (ratio) | Structure (SMILES)
1 | b (b = between 15 and 50) | COc1cc(F)cc2nc(-c3c(C(N)=O)ncc(-c4cc(C)cc(F)c4)c3N3CCC(N)CC3)[nH]c12 [Compound 2-3, 4-(4-aminopiperidin-1-yl)-3-(6-fluoro-4-methoxy-1H-1,3-benzodiazol-2-yl)-5-(3-fluoro-5-methylphenyl)pyridine-2-carboxamide]
2 | a (a = above 50) | COc1cc(C#N)cc2[nH]c(-c3c(N)ncc(-c4cc(C)cc(F)c4)c3N3CCC(N)CC3)nc12 [Compound 1-1, 2-[2-amino-4-(4-aminopiperidin-1-yl)-5-(3-fluoro-5-methylphenyl)pyridin-3-yl]-4-methoxy-1H-1,3-benzodiazole-6-carbonitrile]
3 | d (d = between 1 and 2.5) | COC(=O)c1ncc(-c2cc(C)cc(F)c2)c(N2CCC(N)CC2)c1-c1nc2cc(F)cc(OC)c2[nH]1 [Compound 2-1, methyl 4-(4-aminopiperidin-1-yl)-3-(6-fluoro-4-methoxy-1H-1,3-benzodiazol-2-yl)-5-(3-fluoro-5-methylphenyl)pyridine-2-carboxylate]
4 | e (e = between 1 and 0.5) | COc1cc(F)cc2nc(-c3c(C#N)ncc(-c4cc(C)cc(F)c4)c3N3CCC(N)CC3)[nH]c12 [Compound 2-2, 4-(4-aminopiperidin-1-yl)-3-(6-fluoro-4-methoxy-1H-1,3-benzodiazol-2-yl)-5-(3-fluoro-5-methylphenyl)pyridine-2-carbonitrile]

same assay, conditions: Table C

Row | Structure (SMILES) | hSST4/hSST2 (ratio)
5 | COc1cc(F)cc2[nH]c(-c3c(N)ncc(-c4cccc(F)c4)c3N3CC[C@@H]4NCCO[C@H]4C3)nc12 [Compound 3-9, 4-[(4αS,8αS)-octahydro-1H-pyrido[3,4-b][1,4]oxazin-6-yl]-3-(6-fluoro-4-methoxy-1H-1,3-benzodiazol-2-yl)-5-(3-fluorophenyl)pyridin-2-amine] | c (c = between 2.5 and 15)
6 | Nc1ncc(-c2cccc(F)c2)c(N2CC[C@@H]3NCCO[C@H]3C2)c1-c1nc2c(F)cc(F)cc2[nH]1 [Compound 3-3, 4-[(4αS,8αS)-octahydro-1H-pyrido[3,4-b][1,4]oxazin-6-yl]-3-(4,6-difluoro-1H-1,3-benzodiazol-2-yl)-5-(3-fluorophenyl)pyridin-2-amine] | c (c = between 2.5 and 15)

The next lines start with the values.

Row | hSST4/hSST2 (ratio) | Structure (SMILES)
7 | a (a = above 50) | CNc1ncc(-c2cccc(F)c2)c(N2CC[C@@H]3NCCO[C@H]3C2)c1-c1nc2c(OC)cc(F)cc2[nH]1 [Compound 3-10, 4-[(4αS,8αS)-octahydro-1H-pyrido[3,4-b][1,4]oxazin-6-yl]-3-(6-fluoro-4-methoxy-1H-1,3-benzodiazol-2-yl)-5-(3-fluorophenyl)-N-methylpyridin-2-amine]
8 | a (a = above 50) | CNc1ncc(-c2cccc(F)c2)c(N2CC[C@@H]3NCCO[C@H]3C2)c1-c1nc2c(OC)cc(C#N)cc2[nH]1 [Compound 3-12, 2-[4-[(4αS,8αS)-octahydro-1H-pyrido[3,4-b][1,4]oxazin-6-yl]-5-(3-fluorophenyl)-2-(methylamino)pyridin-3-yl]-4-methoxy-1H-1,3-benzodiazole-6-carbonitrile]
9 | b (b = between 15 and 50) | COc1cc(C#N)cc2[nH]c(-c3c(N)ncc(-c4cc(F)cc(F)c4)c3N3CC[C@@H]4NCCO[C@H]4C3)nc12 [Compound 3-18, 2-{4-[(4αS,8αS)-octahydro-1H-pyrido[3,4-b][1,4]oxazin-6-yl]-2-amino-5-(3,5-difluorophenyl)pyridin-3-yl}-4-methoxy-1H-1,3-benzodiazole-6-carbonitrile]
10 | b (b = between 15 and 50) | N#Cc1cc(F)c2nc(-c3c(N)ncc(-c4cc(F)cc(F)c4)c3N3CC[C@@H]4OCCN[C@H]4C3)[nH]c2c1 [Compound 3-19, 2-{4-[(4αS,8αS)-octahydro-1H-pyrido[3,4-b][1,4]oxazin-6-yl]-2-amino-5-(3,5-difluorophenyl)pyridin-3-yl}-4-fluoro-1H-1,3-benzodiazole-6-carbonitrile]
11 | a (a = above 50) | CNc1ncc(-c2cc(F)cc(Cl)c2)c(N2CC[C@@H]3NCCO[C@H]3C2)c1-c1nc2c(OC)cc(F)cc2[nH]1 [Compound 3-13, 4-[(4αS,8αS)-octahydro-1H-pyrido[3,4-b][1,4]oxazin-6-yl]-5-(3-chloro-5-fluorophenyl)-3-(6-fluoro-4-methoxy-1H-1,3-benzodiazol-2-yl)-N-methylpyridin-2-amine]
12 | c (c = between 2.5 and 15) | COc1cc(F)cc2[nH]c(-c3c(N)ncc(-c4cc(F)cc(Cl)c4)c3N3CC[C@@H]4OCCN[C@H]4C3)nc12 [Compound 3-17, 4-[(4αS,8αS)-octahydro-1H-pyrido[3,4-b][1,4]oxazin-6-yl]-5-(3-chloro-5-fluorophenyl)-3-(6-fluoro-4-methoxy-1H-1,3-benzodiazol-2-yl)pyridin-2-amine]
13 | a (a = above 50) | COc1cc(C#N)cc2[nH]c(-c3c(N)ncc(-c4cccc(F)c4)c3N3CC[C@@H]4NCCO[C@H]4C3)nc12 [Compound 3-11, 2-{4-[(4αS,8αS)-octahydro-1H-pyrido[3,4-b][1,4]oxazin-6-yl]-2-amino-5-(3-fluorophenyl)pyridin-3-yl}-4-methoxy-1H-1,3-benzodiazole-6-carbonitrile]

system: not listed separately; assay: Liver microsomal stability assay; assay type: in vitro ADME; conditions: human liver microsomes, 0.5 mg/mL protein, 37° C.
Protocol: The in vitro stabilities of compounds of interest were determined for various species using pooled male and female human, pooled male Sprague-Dawley rat, pooled male Cynomolgus monkey, and pooled male Beagle dog liver microsomes at microsomal protein concentrations of 0.5 mg/mL. Incubations were carried out in a potassium phosphate buffer (50 mM). The NADPH-generating system was composed of NADP+ (1 mM), magnesium chloride (3 mM), EDTA (1 mM), glucose-6-phosphate (5 mM) and glucose-6-phosphate dehydrogenase (1 Unit/mL) for all experiments. Compounds of interest in DMSO were added to achieve a final incubation concentration of […] (final DMSO content was 0.1% v/v and final acetonitrile content was 0.9%). The final incubation volume was 400 μL. Incubations were conducted at 37° C. for 0, 5, 10, 20, 40 and 60 minutes in a shaking water bath and terminated by removing 50 µL of incubation mixture and adding to 100 μL of ice cold acetonitrile containing internal standard. Following precipitation by centrifugation at 3500 rpm and 4° C. for 30 minutes, compounds of interest and internal standard were analyzed in the resultant supernatant using a multiple reaction monitoring (MRM) LC-MS/MS method. MS conditions were optimized for each analyte.
The following Table (Table D) illustrates human liver microsomal stability of exemplary compounds.

Row | HLM t1/2 | Structure (SMILES)
14 | 1.65 h | COc1cc(C#N)cc2[nH]c(-c3c(N)ncc(-c4cc(F)cc(F)c4)c3N3CC[C@@H]4NCCO[C@H]4C3)nc12 [Compound 3-18, 2-{4-[(4αS,8αS)-octahydro-1H-pyrido[3,4-b][1,4]oxazin-6-yl]-2-amino-5-(3,5-difluorophenyl)pyridin-3-yl}-4-methoxy-1H-1,3-benzodiazole-6-carbonitrile]
